Where two headings read alike, the source gives them in different places.
Key:
PRKX = molecular target: T1, PRKX (Homo sapiens, UniProt P51817); assay: DiscoverX scanMAX binding assay
T1 construct: purchased Eurofins (radiometric) / Eurofins DiscoverX scanMAX / Reaction Biology / SignalChem
Source text: (§1) This panel includes 403 wild-type (WT) human kinases but not TTBK1/2. […] Substantial overlap between the MRC and DiscoverX scanMAX kinase panels allows the comparison of results for the same kinases in two different assay formats (enzymatic versus binding, respectively) at the same concentration. Selectivity results are included in two columns within Table 1. […] The rightmost column converts this selectivity score into the number of kinases with a PoC < 10 in the scanMAX panel.
(§2) The Eurofins DiscoverX Corporation scanMAX assay platform was employed to assess the selectivity of specific analogs at a single concentration (1 µM). As described previously, this assay platform profiles a compound against 403 wild-type human kinases and delivers percent of control (PoC) values. These percent of control values are included in Table 1 and corresponding kinome tree diagrams as well as tables for each analog included in Fig. S1.

PAK6 = molecular target: T2, PAK6 (Homo sapiens, UniProt Q9NQU5); assay: DiscoverX scanMAX binding assay
T2 construct: purchased Eurofins (radiometric) / Eurofins DiscoverX scanMAX / Reaction Biology / SignalChem
T2 sequence (Q9NQU5 whole entry): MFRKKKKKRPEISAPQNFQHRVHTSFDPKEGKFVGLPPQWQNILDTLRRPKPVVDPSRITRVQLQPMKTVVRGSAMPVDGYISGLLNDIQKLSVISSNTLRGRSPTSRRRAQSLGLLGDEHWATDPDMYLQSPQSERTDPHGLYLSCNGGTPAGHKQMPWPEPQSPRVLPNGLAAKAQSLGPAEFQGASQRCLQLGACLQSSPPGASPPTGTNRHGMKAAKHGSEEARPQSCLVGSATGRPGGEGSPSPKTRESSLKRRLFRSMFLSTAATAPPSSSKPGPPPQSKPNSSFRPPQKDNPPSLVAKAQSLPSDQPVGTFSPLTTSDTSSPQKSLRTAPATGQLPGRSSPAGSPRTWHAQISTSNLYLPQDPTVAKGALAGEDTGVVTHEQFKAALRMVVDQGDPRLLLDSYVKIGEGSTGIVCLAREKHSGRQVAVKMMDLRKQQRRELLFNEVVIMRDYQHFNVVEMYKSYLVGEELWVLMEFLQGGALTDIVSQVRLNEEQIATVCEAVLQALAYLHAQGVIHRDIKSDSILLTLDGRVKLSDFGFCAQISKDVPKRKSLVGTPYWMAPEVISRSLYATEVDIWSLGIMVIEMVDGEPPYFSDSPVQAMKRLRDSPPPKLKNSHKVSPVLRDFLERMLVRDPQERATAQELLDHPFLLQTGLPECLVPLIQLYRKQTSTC
Source text: as §1, §2

CIT = molecular target: T3, CIT (Homo sapiens, UniProt O14578); assay: DiscoverX scanMAX binding assay; conditions: 1 μM
T3 construct: purchased Eurofins (radiometric) / Eurofins DiscoverX scanMAX / Reaction Biology / SignalChem
T3 sequence (O14578 whole entry): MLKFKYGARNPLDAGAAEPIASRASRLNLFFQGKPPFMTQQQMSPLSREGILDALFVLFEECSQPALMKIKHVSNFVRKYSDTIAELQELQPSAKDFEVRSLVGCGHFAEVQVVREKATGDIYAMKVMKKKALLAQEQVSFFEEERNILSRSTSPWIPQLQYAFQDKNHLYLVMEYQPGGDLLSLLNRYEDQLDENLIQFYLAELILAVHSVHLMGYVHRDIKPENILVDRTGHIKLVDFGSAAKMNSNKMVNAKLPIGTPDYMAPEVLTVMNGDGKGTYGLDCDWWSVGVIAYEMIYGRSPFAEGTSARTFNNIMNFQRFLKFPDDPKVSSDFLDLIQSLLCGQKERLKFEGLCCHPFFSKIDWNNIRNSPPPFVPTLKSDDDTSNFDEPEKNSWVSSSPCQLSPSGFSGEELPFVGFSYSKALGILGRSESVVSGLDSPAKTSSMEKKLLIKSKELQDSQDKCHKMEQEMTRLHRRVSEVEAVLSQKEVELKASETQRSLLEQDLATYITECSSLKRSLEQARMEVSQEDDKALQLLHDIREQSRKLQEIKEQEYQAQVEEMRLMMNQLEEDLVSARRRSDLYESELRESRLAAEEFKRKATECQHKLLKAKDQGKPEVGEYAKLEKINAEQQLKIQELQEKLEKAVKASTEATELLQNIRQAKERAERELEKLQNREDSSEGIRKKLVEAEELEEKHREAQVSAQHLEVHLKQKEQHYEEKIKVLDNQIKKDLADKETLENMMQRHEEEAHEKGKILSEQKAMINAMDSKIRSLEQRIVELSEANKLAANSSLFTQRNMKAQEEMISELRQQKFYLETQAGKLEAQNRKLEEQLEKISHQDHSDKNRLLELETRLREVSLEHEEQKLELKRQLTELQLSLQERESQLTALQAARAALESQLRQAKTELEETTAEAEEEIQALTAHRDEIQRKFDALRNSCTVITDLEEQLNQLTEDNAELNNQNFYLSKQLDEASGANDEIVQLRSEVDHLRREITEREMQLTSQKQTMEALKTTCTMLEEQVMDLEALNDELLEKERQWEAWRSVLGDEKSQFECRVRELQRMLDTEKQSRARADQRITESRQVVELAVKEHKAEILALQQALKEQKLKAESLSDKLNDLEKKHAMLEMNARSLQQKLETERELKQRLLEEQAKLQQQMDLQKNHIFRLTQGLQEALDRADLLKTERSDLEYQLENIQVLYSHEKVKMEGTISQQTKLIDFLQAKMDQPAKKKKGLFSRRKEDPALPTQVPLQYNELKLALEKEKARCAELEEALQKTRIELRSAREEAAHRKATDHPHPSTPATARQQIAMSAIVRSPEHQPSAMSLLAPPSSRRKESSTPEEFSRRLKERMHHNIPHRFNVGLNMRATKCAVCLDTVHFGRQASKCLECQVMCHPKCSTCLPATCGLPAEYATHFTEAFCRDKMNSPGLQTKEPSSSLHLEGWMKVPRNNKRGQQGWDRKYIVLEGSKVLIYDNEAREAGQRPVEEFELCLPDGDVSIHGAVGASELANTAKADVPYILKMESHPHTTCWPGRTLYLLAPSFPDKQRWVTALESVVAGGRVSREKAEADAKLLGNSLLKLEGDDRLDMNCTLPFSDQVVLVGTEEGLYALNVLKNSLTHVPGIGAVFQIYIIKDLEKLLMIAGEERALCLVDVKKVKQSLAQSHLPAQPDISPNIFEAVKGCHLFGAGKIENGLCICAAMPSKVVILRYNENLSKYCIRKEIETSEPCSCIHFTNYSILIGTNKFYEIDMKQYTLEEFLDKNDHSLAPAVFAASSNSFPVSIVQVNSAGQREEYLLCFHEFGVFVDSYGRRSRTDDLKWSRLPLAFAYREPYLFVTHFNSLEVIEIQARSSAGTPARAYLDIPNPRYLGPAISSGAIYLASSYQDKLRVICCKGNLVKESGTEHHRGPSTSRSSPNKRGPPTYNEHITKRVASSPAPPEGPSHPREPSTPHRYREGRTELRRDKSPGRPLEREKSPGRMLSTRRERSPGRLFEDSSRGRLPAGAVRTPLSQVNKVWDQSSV
Source text: as §1, §2

TAOK1 = molecular target: T4, TAOK1 (Homo sapiens, UniProt Q7L7X3); assay: DiscoverX scanMAX binding assay; conditions: 1 μM
T4 construct: purchased Eurofins
T4 sequence (Q7L7X3 1-1001): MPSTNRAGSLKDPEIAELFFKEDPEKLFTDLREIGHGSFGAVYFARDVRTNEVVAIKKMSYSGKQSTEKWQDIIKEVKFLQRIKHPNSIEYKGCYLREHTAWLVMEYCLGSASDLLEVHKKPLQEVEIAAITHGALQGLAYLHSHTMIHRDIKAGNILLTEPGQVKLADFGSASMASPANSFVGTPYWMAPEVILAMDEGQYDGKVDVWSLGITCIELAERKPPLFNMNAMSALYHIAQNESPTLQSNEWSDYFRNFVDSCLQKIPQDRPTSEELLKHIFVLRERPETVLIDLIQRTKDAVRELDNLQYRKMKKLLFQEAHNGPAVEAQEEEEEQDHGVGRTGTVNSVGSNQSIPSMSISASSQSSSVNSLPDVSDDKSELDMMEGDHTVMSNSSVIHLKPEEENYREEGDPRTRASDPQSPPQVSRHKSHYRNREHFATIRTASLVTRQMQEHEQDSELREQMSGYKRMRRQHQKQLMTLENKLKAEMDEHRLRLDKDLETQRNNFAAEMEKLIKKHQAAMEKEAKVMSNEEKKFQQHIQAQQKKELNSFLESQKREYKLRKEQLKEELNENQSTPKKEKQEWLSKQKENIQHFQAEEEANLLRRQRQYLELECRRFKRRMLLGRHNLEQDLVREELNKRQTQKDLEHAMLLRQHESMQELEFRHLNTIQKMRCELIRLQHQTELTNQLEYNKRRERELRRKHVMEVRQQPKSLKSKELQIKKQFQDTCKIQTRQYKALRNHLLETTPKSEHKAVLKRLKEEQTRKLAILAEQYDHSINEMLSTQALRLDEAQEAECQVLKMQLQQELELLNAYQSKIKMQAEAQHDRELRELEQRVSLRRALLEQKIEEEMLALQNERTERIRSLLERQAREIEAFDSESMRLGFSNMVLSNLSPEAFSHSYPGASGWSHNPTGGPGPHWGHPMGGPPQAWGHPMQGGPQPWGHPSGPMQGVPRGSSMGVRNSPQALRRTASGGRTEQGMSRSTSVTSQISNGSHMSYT
Source text: as §1, §2

MYLK4 = molecular target: T5, MYLK4 (Homo sapiens, UniProt Q86YV6); assay: DiscoverX scanMAX binding assay; conditions: 1 μM
T5 construct: purchased Eurofins (radiometric) / Eurofins DiscoverX scanMAX / Reaction Biology / SignalChem
Source text: as §1, §2

TTBK2 kinase domain = molecular target: T6, TTBK2 kinase domain (Homo sapiens, UniProt Q6IQ55); assay: Thermal shift assay; type: binding; conditions: kinase domain 2 µM, inhibitor 10 µM
T6 construct: Either the TTBK1 or TTBK2 kinase domain at 2 µM
T6 sequence (Q6IQ55 21-284 limits assumed): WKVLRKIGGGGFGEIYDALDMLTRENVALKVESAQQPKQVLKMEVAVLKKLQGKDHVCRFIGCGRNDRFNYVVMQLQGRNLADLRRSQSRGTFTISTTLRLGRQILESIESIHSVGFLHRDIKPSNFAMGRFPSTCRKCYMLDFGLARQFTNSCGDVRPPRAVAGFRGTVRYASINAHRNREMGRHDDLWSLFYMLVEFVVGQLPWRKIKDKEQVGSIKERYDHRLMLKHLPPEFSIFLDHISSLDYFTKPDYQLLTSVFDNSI
Method: Either the TTBK1 or TTBK2 kinase domain at 2 µM in 10 mM HEPES pH 7.5 and 500 mM NaCl was mixed with the inhibitors at 10 µM in the presence of SyPRO orange dye (Invitrogen). A Real-Time PCR Mx3005p machine (Stratagene) was used to measure the fluorescence spectrum. The Tm shift assays and data evaluation for melting temperatures were performed according to the previously described protocol.

NLuc-TTBK2 = molecular target: T7, NLuc-TTBK2 (Homo sapiens, UniProt Q6IQ55); assay: TTBK2 NanoBRET cellular target engagement assay in HEK293 cells; type: cell-based
T7 construct: host or cells: HEK293
T7 sequence (Q6IQ55 whole entry): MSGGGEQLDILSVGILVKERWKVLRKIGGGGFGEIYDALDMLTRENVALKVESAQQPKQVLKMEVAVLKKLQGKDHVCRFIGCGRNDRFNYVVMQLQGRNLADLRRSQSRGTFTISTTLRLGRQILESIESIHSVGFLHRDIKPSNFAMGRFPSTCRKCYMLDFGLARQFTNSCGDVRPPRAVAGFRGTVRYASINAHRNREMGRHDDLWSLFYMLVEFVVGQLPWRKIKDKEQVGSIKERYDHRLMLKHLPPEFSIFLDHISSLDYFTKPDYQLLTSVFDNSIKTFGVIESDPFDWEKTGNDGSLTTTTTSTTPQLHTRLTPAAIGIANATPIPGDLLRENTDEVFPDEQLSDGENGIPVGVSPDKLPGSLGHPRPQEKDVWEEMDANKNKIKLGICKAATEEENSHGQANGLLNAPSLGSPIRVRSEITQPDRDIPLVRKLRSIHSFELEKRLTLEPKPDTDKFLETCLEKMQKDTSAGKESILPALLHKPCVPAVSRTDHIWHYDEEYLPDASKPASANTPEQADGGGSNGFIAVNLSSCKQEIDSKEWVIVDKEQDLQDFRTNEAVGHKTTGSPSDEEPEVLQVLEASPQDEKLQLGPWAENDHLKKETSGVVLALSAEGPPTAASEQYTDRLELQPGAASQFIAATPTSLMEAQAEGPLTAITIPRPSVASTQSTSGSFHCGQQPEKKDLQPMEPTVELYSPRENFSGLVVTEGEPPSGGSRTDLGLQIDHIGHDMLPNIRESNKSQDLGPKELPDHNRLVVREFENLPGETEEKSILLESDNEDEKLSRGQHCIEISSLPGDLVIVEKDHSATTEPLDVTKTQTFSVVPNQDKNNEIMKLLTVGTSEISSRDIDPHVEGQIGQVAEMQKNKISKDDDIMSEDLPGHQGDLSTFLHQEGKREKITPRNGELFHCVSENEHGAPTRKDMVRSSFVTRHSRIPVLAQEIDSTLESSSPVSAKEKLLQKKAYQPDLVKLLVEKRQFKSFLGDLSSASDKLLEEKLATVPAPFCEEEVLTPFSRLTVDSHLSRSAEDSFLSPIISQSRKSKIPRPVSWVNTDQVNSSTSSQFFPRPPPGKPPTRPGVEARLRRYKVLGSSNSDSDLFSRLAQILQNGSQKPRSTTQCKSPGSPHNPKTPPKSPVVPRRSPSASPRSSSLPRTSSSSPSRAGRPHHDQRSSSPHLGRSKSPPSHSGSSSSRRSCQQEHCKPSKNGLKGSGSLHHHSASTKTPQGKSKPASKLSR
Method: HEK293 cells were transfected with constructs of TTBK1 or TTBK2 tagged with NLuc on the N- or C-terminus as previously described[43] Constructs for NanoBRET measurements of TTBK1 (NLuc-TTBK1 and TTBK1-NLuc) and TTBK2 (NLuc-TTBK2 and TTBK2-NLuc) were kindly provided by Promega. NLuc orientations used in the respective assays are indicated. Cells were plated in 96-well tissue culture treated plates (Corning 3917) at a cell density of 2 × 10^5 cells/mL, with a total volume of 100 μL per well in DMEM. […] NanoBRET plates were read after addition of 50 μL of a stock solution (3X) containing NanoBRET NanoGlo substrate (Promega N2161), extracellular NanoLuc inhibitor (Promega N2161) and Opti-MEM. For a 96-well plate the 3X stock solution was prepared with 30 μL of NanoBRET NanoGlo substrate, 10 μL of extracellular NanoLuc inhibitor, and 4960 μL of Opti-MEM without phenol red. […] HEK293 cells were transfected with NLuc-TTBK1 or NLuc-TTBK2. […] One biological replicate was plotted in GraphPad Prism with log[inhibitor] vs. response (three parameters) and included in Fig. 3C. NanoBRET assays were carried out in dose-response format as described previously. NLuc orientations used in the respective assays are as follows: NLuc-TTBK1, NLuc-TTBK2, and PIP4K2C-NLuc (for PI5[…]γ). […] Data are reported as IC50 ± standard error mean (SEM). For PI5[…]γ, 9 was tested in 12-point dose-response format with a top concentration of 10 μM (data in Table S2). One biological replicate was plotted in GraphPad Prism with log[inhibitor] vs. response (three parameters).

TTBK1 kinase domain = molecular target: T8, TTBK1 kinase domain (Homo sapiens, UniProt Q5TCY1); assay: Thermal shift assay; type: binding; conditions: kinase domain 2 µM, inhibitor 10 µM
T8 construct: Either the TTBK1 or TTBK2 kinase domain at 2 µM
T8 sequence (Q5TCY1 13-320): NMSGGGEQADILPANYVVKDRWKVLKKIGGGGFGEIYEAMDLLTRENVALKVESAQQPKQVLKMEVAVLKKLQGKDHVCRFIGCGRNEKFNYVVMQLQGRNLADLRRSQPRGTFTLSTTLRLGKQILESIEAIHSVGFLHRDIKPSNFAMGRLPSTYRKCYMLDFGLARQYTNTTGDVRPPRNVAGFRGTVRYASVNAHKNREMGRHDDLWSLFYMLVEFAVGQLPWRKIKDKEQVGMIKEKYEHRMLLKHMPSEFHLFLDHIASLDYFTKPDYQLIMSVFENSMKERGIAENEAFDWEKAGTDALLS
Method: A Real-Time PCR Mx3005p machine (Stratagene) was used to measure the fluorescence spectrum. The Tm shift assays and data evaluation for melting temperatures were performed according to the previously described protocol.

[1] = intact HEK293 cells, 2 μM tracer 29, read-out: TTBK2 intact cell NB IC50
[2] = permeabilized HEK293 cells (digitonin), 2 μM tracer 29, read-out: TTBK2 permeabilized cell NB IC50

T1 sequence (P51817 whole entry): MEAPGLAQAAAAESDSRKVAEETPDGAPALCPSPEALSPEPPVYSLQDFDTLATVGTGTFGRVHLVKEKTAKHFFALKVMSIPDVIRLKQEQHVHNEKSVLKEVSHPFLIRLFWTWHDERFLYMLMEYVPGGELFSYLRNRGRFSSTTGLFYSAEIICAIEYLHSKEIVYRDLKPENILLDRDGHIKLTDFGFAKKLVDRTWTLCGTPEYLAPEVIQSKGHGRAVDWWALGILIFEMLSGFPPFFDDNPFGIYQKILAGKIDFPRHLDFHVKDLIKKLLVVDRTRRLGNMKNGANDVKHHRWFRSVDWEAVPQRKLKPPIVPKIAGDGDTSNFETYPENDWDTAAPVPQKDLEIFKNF

| SMILES | percent of control (binding) at 1 µM (PRKX; read-out: PRKX % control at 1000nM) | percent of control (binding) at 1 µM (PAK6; read-out: PAK6 % control at 1000nM) | CIT (CRIK) % control at 1000nM / DiscoverX PoC value (CIT) | TAOK1 % control at 1000nM / DiscoverX PoC value (TAOK1) | MYLK4 % control at 1000nM / DiscoverX PoC value (MYLK4) | ΔTm at 10 µM (TTBK2 kinase domain) | PRKX % control at 1000nM (PRKX; 1 μM) | PAK6 % control at 1000nM (PAK6; 1 μM) | IC50 (NLuc-TTBK2; [1]) | IC50 (NLuc-TTBK2; [2]) | IC50 (NLuc-TTBK2; tracer titration experiment, 2 μM tracer 29, n = 1, read-out: NL-TTBK2 IC50, tracer titration) | ΔTm TTBK2 (TTBK2 kinase domain) | ΔTm TTBK1 (TTBK1 kinase domain) |
| --- | --- | --- | --- | --- | --- | --- | --- | --- | --- | --- | --- | --- | --- |
| CC(C)(O)C#Cc1ccc2[nH]c3c(c2c1)-c1nc(N)ncc1CCC3 [AMG28, reference compound] | 4.3% | 2.9% | 1.3 % control | 3.2 % control | 2.8 % control | 6.2 °C | – | – | – | – | – | – | – |
| CC(C)(O)C#Cc1ccc2[nH]cc(-c3ccnc(N)n3)c2c1 [Compound 3] | – | – | 0 % control | 2.1 % control | – | – | 3.5 % control | 6.7 % control | 11.7 ± 3.7 µM | 2.52 ± 0.62 µM | 6.9 µM | 6.2 °C | 6.9 °C |
| CC(C)(O)C#Cc1ccc2[nH]c3c(c2c1)-c1nc(N)ncc1CCCC3 [Compound 2] | – | – | – | – | – | – | – | – | > 30 µM | 17 µM | – | – | – |
| CC(C)(O)C#Cc1ccc2[nH]c3c(c2c1)-c1nc(N)ncc1CC3 [Compound 1] | – | – | 0 % control | 1.2 % control | 9.4 % control | – | – | – | 16 µM | 3.6 µM | – | 5.6 °C | 6.1 °C |
| COC(C)(C)C#Cc1ccc2[nH]c3c(c2c1)-c1nc(N)ncc1CCC3 [Compound 11] | – | – | – | – | – | – | – | – | > 30 µM | > 30 µM | – | – | – |

From publication PMC10104807, “Modulation of tau tubulin kinases (TTBK1 and TTBK2) impacts ciliogenesis” (Scientific Reports, 2023)
